Results from patent US9034878B2, “Treatment of diseases” (Ampio Pharmaceuticals, Inc., priority 2010, dated 2015).
“And” between values parts separate entries of the source, which are not always exact repeats. Equal values may be shown once.

Columns and labels:
[1] = DA-DKP LCMS measurement in plasma, urine and saliva after oral dose; assay type: in vivo, human; conditions: 100 mg oral
Method: • 1. Two human male volunteers and one human volunteer (respectively) were administered 100 mg of DA-DKP (packed in a gelatin capsule) orally on an empty stomach after overnight fasting. The DA-DKP was composed of L-aspartic acid and L-alanine. • 2. […] Blood samples were analyzed for a complete blood count (CBC) and a biochemical survey, including plasma lipids at baseline and at the 24 hrs time points. Plasma was also used for measurement of the level of DA-DKP by a liquid chromatography mass spectrometer (LCMS) method (protocol and results given below). • 4. Peripheral blood monocytes (PBMC) from heparinized bloods were extracted by Ficoll gradient method and analyzed by flow cytometry. The protocol and results are given below. • 5. Urines were collected for 24 hrs and volumes were recorded. DA-DKP levels were also measured by LCMS. • 6. Saliva at 2 hrs was tested for the presence of DA-DKP by LCMS. Summary of Results: • 1. CBC's were unchanged and remained within the normal range. • 2. BUN, glucose electrolytes, creatinine, liver function tests, total protein, albumin and calcium were unchanged and within the normal range at 24 hours post ingestion. • 3. […] Urine levels of DA-DKP were calculated (see Table 2). • 6. Saliva DA-DKP levels were calculated (see Table 2) • 7. PBMC results are described below. • 8. Effects noticed by subjects: • a. Significant loss of appetite (lasting 8-9 hrs)—3/3 subjects • b. Slight dry mouth—2/3 subjects • c. Thick saliva—1/3 subjects • d. […] Laxative effect—1/3 subjects • f. Slight drowsiness—1/3 subjects * Analgesic Effect:
Plasma or urines were passed through a <5 Kd filter and 50 μl of the flow-through fractions were injected into high performance liquid chromatography (HPLC, 2975 system, Waters, Mass.) coupled to a mass spectrometer (LCT-TOF, Micromass, UK) and DA-DKP was quantified using a strong anion exchange column (Spherisorb, S5 SAX 250 mm×4.0 mm, Waters) and a ternary mobile phase consisting of water, methanol and 200 mM Ammonium Formate (Sigma Aldrich, Mo.), pH 5.4, at 0.5 ml/min flow rate in a gradient as shown in Table A.
The output of the HPLC was split 1:20 (v:v) and injected into the mass spectrometer using negative electrospray ionization (−ESI MS) with a scan range of 80 to 1000 m/z, cone voltage of 30 eV, source temperature of 100° C., and gas temperature of 300° C. DA-DKP was measured by monitoring the mass 185 in time, which corresponds to DA-DKP minus a single proton (—H+). DA-DKP elutes at 10.4 minutes and was quantified by integrating the area under the curve. The area was compared to a standard curve derived from synthetic DA-DKP standards (DMI Synthesis, Newport Wales, UK) of known concentrations (2000 ng/ml, 1000 ng/ml, 400 ng/ml, 200 ng/ml, 100 ng/ml, 20 ng/ml).

MAPK = conditions: reference 12; cited from earlier work
[2] = Effects noticed by subjects after oral DA-DKP (appetite, analgesia, side effects); assay type: in vivo, human; conditions: 100 mg oral
Method: • 1. Two human male volunteers and one human volunteer (respectively) were administered 100 mg of DA-DKP (packed in a gelatin capsule) orally on an empty stomach after overnight fasting. The DA-DKP was composed of L-aspartic acid and L-alanine. • 2. Venous blood samples were drawn into heparinized and EDTA vacutainers at baseline (time zero), 2 hours (hrs), 4 hrs and 24 hrs after the ingestion of the DA-DKP. • 3. Blood samples were analyzed for a complete blood count (CBC) and a biochemical survey, including plasma lipids at baseline and at the 24 hrs time points. Plasma was also used for measurement of the level of DA-DKP by a liquid chromatography mass spectrometer (LCMS) method (protocol and results given below). • 4. Peripheral blood monocytes (PBMC) from heparinized bloods were extracted by Ficoll gradient method and analyzed by flow cytometry. The protocol and results are given below. • 5. Urines were collected for 24 hrs and volumes were recorded. DA-DKP levels were also measured by LCMS. • 6. Saliva at 2 hrs was tested for the presence of DA-DKP by LCMS. Summary of Results: • 1. CBC's were unchanged and remained within the normal range. • 2. BUN, glucose electrolytes, creatinine, liver function tests, total protein, albumin and calcium were unchanged and within the normal range at 24 hours post ingestion. • 3. […] Urine levels of DA-DKP were calculated (see Table 2). • 6. Saliva DA-DKP levels were calculated (see Table 2) • 7. PBMC results are described below. • 8. Effects noticed by subjects: • a. Significant loss of appetite (lasting 8-9 hrs)—3/3 subjects • b. Slight dry mouth—2/3 subjects • c. Thick saliva—1/3 subjects • d. […] Laxative effect—1/3 subjects • f. Slight drowsiness—1/3 subjects * Analgesic Effect:
One subject had left knee and left Sacroiliac (SI) joint pain. […] The pain originates probably from inflammation caused by sarcoidosis and was 6-7 on a scale of 1-10 before treatment. The effect lasted for about 4 hrs.

T-cells = conditions: U.S. Pat. Nos. 6,555,543 and 7,732,403; cited from earlier work
[3] = test system: Peripheral blood mononuclear cells (PBMC); assay: PBMC CD69 expression by flow cytometry after OKT3 stimulation (ex vivo); assay type: cell-based, human; conditions: single individual
Method: • 1. Two human male volunteers and one human volunteer (respectively) were administered 100 mg of DA-DKP (packed in a gelatin capsule) orally on an empty stomach after overnight fasting. The DA-DKP was composed of L-aspartic acid and L-alanine. • 2. Venous blood samples were drawn into heparinized and EDTA vacutainers at baseline (time zero), 2 hours (hrs), 4 hrs and 24 hrs after the ingestion of the DA-DKP. • 3. Blood samples were analyzed for a complete blood count (CBC) and a biochemical survey, including plasma lipids at baseline and at the 24 hrs time points. […] Peripheral blood monocytes (PBMC) from heparinized bloods were extracted by Ficoll gradient method and analyzed by flow cytometry. […] Urines were collected for 24 hrs and volumes were recorded. DA-DKP levels were also measured by LCMS. • 6. […] Urine levels of DA-DKP were calculated (see Table 2). • 6. Saliva DA-DKP levels were calculated (see Table 2) • 7. […]
Peripheral blood mononuclear cells (PBMC) were isolated from peripheral blood, and 2,000,000 cells were cultured in DMEM medium with 10% human AB serum plus 2% (final concentration) of anti-T-cell receptor complex antibody OKT3. […] After culture overnight at 37° C. cells were washed, incubated with an anti-CD69 antibody, fixed and analyzed on the flow cytometer for CD69 expression. […]

platelets = conditions: U.S. Pat. Nos. 6,555,543 and 7,732,403; cited from earlier work
[4] = test system: vascular endothelial barrier; conditions: provisional application No. 61/380,404; cited from earlier work
interleukin-6 (IL-6) = assay: IL-6 ELISA of preadipocyte culture media; assay type: cell-based; conditions: after the 2 week differentiation period (data not shown)
Method: 7-day old medium was aspirated and cells were dosed with DA-DKP (doses used in PGM-2 media: 25, 50, or 100 μM) in triplicate on two plates. The DA-DKP was composed of L-aspartic acid and L-alanine. PGM-2 differentiation media (containing insulin, dexamethasone, indomethacin, and isobutyl-methylxanthine; Lonza) was added to one plate, while PGM-2 media was added to the other. Plates were then placed back in culture and allowed to incubate for 14 days.
After the 14 day incubation period, culture media were collected from all wells and stored at −20° C. for IL-6 ELISA (see below). Wells were rinsed once with 1×PBS (Lonza). 50 μL M-PER lysis solution (Thermo Scientific, Rockford, Ill.) were added to all wells, and complete cell lysis was achieved by mixing each well. 150 μL 1×PBS was added to each well. 5 μL AdipoRed™ Reagent (Lonza) was added to each well, and the plate was mixed immediately by gentle tapping. After 10 minutes, fluorescence was measured on a plate reader set at λEX=485 nm and λEM=572 nm.
Enzyme-linked immunosorbent assay (ELISA) matched-pair antibodies for interleukin-6 (IL-6) were obtained from Thermo Scientific (Rockford, Ill.). IL-6 was analyzed by ELISA and performed according to the manufacturer's instructions. A 1:10 dilution of each supernatant was measured in duplicate using an IL-6 standard (Thermo Scientific, Rockford, Ill.).

[5] = Plasma lipids after a single oral dose of DA-DKP in human volunteers; assay type: in vivo; conditions: 100 mg oral; all three subjects
Method: (§1) • 1. Two human male volunteers and one human volunteer (respectively) were administered 100 mg of DA-DKP (packed in a gelatin capsule) orally on an empty stomach after overnight fasting. The DA-DKP was composed of L-aspartic acid and L-alanine. • 2. Venous blood samples were drawn into heparinized and EDTA vacutainers at baseline (time zero), 2 hours (hrs), 4 hrs and 24 hrs after the ingestion of the DA-DKP. • 3. Blood samples were analyzed for a complete blood count (CBC) and a biochemical survey, including plasma lipids at baseline and at the 24 hrs time points. Plasma was also used for measurement of the level of DA-DKP by a liquid chromatography mass spectrometer (LCMS) method (protocol and results given below). • 4. Peripheral blood monocytes (PBMC) from heparinized bloods were extracted by Ficoll gradient method and analyzed by flow cytometry. The protocol and results are given below. • 5. Urines were collected for 24 hrs and volumes were recorded. DA-DKP levels were also measured by LCMS. • 6. Saliva at 2 hrs was tested for the presence of DA-DKP by LCMS. Summary of Results: • 1. CBC's were unchanged and remained within the normal range. • 2. […] Urine levels of DA-DKP were calculated (see Table 2). • 6. Saliva DA-DKP levels were calculated (see Table 2) • 7. […]

[6] = Complete blood count and biochemical survey after oral DA-DKP; assay type: in vivo; conditions: 100 mg oral, human
Method: as §1

endothelial cells = conditions: provisional application No. 61/380,404; cited from earlier work
[7] = test system: Subcutaneous preadipocytes; assay: Adipogenesis assay (AdipoRed fluorescence); assay type: cell-based; conditions: 14 days differentiation
Method: Subcutaneous preadipocytes (Zen-Bio, Inc., Research Triangle Park, N.C.) were cultured to near confluency at 5% CO2, 37° C. in Preadipocyte Growth Medium-2 (PGM-2, Lonza, Walkersville, Md.) containing 10% fetal bovine serum (FBS), L-glutamine, and GA-1000. Cells were harvested using trypsin/EDTA (Lonza) and initially seeded in 96-well black/clear bottom plates at 3,000 cells/well. Cells were allowed to form a confluent monolayer for 7 days in culture.
7-day old medium was aspirated and cells were dosed with DA-DKP (doses used in PGM-2 media: 25, 50, or 100 μM) in triplicate on two plates. The DA-DKP was composed of L-aspartic acid and L-alanine. […]
After the 14 day incubation period, culture media were collected from all wells and stored at −20° C. for IL-6 ELISA (see below). […] After 10 minutes, fluorescence was measured on a plate reader set at λEX=485 nm and λEM=572 nm.
The triplicate fluorescent values for each treatment were averaged and subtracted from the average media only (i.e. no cells) wells. For the differentiated wells, a % change was calculated by subtracting the average fluorescent value for the differentiated cells from the undifferentiated cells for each treatment group. […] All data are expressed as ±SD. […]

SMILES: C[C@@H]1NC(=O)[C@H](CC(=O)O)NC1=O [DA-DKP]
- DA-DKP plasma level at 24 hrs post ingestion ([1]; human): not detectable
- Time of peak DA-DKP plasma level ([1]; human): about 2 hrs
- DA-DKP in plasma, 15 min ([1]; 15 min, per human subject): 0.14 µM
- DA-DKP in plasma, 30 min ([1]; 30 min, per human subject): 0.35 µM
- DA-DKP in plasma, 60 min ([1]; 60 min, per human subject): 0.84 µM
- DA-DKP in plasma, 240 min ([1]; 240 min, per human subject): 0.25 µM and 0.34 µM
- DA-DKP in plasma, 360 min ([1]; 360 min, per human subject): 0.61 µM
- DA-DKP in Saliva 2 hrs ([1]; saliva at 2 hrs, per human subject): 0.22 µM and 0.29 µM
- DA-DKP in Urine 24 hrs ([1]; urine collected for 24 hrs, per human subject): 4.25 µM and 6.98 µM and 3.52 µM
- MAPK activity in T-lymphocytes (MAPK): inhibitory effect
- Duration of loss of appetite ([2]; human): 8 to 9 h
- Laxative effect, subjects affected ([2]; human): 1/3
- Significant loss of appetite, subjects affected ([2]; human): 3/3
- Slight drowsiness, subjects affected ([2]; human): 1/3
- Slight dry mouth, subjects affected ([2]; human): 2/3
- Thick saliva, subjects affected ([2]; human): 1/3
- Analgesic effect, subjects affected ([2]; human, others did not have pain): 1/3
- Duration of analgesic effect ([2]; one subject): about 4 hrs
- Reduction of SI joint pain ([2]; one subject): about 50%
- Time to analgesic effect after ingestion ([2]; one subject): 1 to 2 h
- Left knee pain ([2]; one subject, pain 6-7 on a scale of 1-10 before treatment): resolved completely
- Activation of T-cells (T-cells): inhibit
- Time of greatest effect on CD69 expression ([3]; after DA-DKP ingestion): 4 h
- CD69 expression on CD45RA and CD45RO cells ([3]; after ingestion of DA-DKP vs time zero, OKT3 stimulation): decreased
- Aggregation of platelets (platelets): inhibit
- Vascular hyperpermeability [4]: inhibit
- Effect on IL-6 levels (interleukin-6 (IL-6)): no significant effect
- Lipids at 24 hours post ingestion [5]: decreased across the board
- BUN, glucose electrolytes, creatinine, liver function tests, total protein, albumin and calcium ([6]; 24 hours post ingestion, within the normal range): unchanged
- CBC ([6]; remained within the normal range): unchanged
- Cytoskeletal network in endothelial cells (endothelial cells): stabilize
- Effect on adipogenesis ([7]; 25 μM): significant decrease
- Effect on adipogenesis ([7]; 100 μM): increase
